Key:
Herzfrequenz an Ratten = assay: Effect on heart rate in anaesthetised rats; format: in vivo; conditions: rats anaesthetised with pentobarbital; dose 5,0 mg/kg injected into the Vena jugularis; 5 minutes after application; control heart rate 350-400 S/min; 2 rats per dose
Procedure: Wirkung auf die Herzfrequenz an Ratten: Die Wirkung der zu untersuchenden Substanzen auf die Herzfrequenz wurde pro Dosis an 2 Ratten mit einem durchschnittlichen Gewicht von 250-300 g untersucht. Hierzu wurden die Ratten mit Pentobarbital (50 mg/kg i.p. und 10 mg/kg s.c.) narkotisiert. Die zu untersuchenden Substanzen […]ösung in die Vena jugularis injiziert (0,1 ml/100 g). Der Blutdruck wurde über in eine A. carotis eingebundene Kanüle gemessen und die Herzfrequenz wurde aus einem mit Nadelelektroden abgeleiteten EKG (II. oder III. Ableitung) registriert. Die Herzfrequenz der […] 350 und 400 Schlägen/Minuten (S/min).

Mäusen = conditions: in vivo, iv, 10 mg/kg
Text: Die erfindungsgemäß hergestellten Verbindungen weisen in therapeutischen Dosen keinerlei toxische Nebenwirkungen auf.

Row | Compound | Herzfrequenzsenkung, gemessen 5 Minuten nach Substanzapplikation (Herzfrequenz an Ratten) | toxische Nebenwirkungen (Mäusen)
1 | COc1ccc(CCN(C)CCCC2CCc3cc(OC)c(OC)cc3C2=O)cc1OC (centres unmarked) [Substanz A, 6,7-Dimethoxy-2-[3-((2-(3,4-dimethoxyphenyl)-ethyl)-methylamino)-propyl]-1-oxo-1,2,3,4-tetrahydro-naphthalin] | 157 S/min | außer einer geringen Sedation keine toxischen Nebenwirkungen
2 | COc1ccc(CCN(C)CCCC2CCc3cc(OC)c(OC)cc3C2)cc1OC.Cl (centres unmarked) [Substanz B, 6,7-Dimethoxy-2-[3-((2-(3,4-dimethoxyphenyl)-ethyl)-methylamino)-propyl]-1,2,3,4-tetrahydro-naphthalin-hydrochlorid] | 150 S/min | 
3 | COc1ccc(CCN(C)CCCC2Cc3cc(OC)c(OC)cc3C2O)cc1OC (centres unmarked) [Substanz C, 5,6-Dimethoxy-2-[3-((2-(3,4-dimethoxyphenyl)-ethyl)-methylamino)-propyl]-1-hydroxy-indan] | 152 S/min | außer einer geringen Sedation keine toxischen Nebenwirkungen

Reference: patent EP0259782A1, “Naphthalene and indane derivatives, medicaments containing these compounds and processes for their preparation” (Dr. Karl Thomae GmbH, priority 1986, dated 1988)
